≈ marks a conversion by molar mass, not a printed value. Where “and” joins values, the source holds several entries; their conditions need not be identical. Equal entries are not always repeated. Entries after “also recorded” stand apart in the source; their conditions may differ. Where two headings read alike, the source gives them in different places.
Legend:
[1] = Octanol/H2O partition coefficient (log P); type: physicochemical; conditions: partition coefficient measured
Text: ^(b) Octanol/H2 O values determined by C. Hansch and M. Yamakawa

lymphoid leukemia L1210 [2] = assay: Intracerebral (IC) lymphoid leukemia L1210 test; type: in vivo, murine; conditions: for ILS (increase in life span): Table III
[3] = system: P388 lymphocytic leukemia; assay: Intraperitoneal (IP) lymphocytic leukemia P388 transplanted mouse tumor test; type: in vivo, murine
Text: (§1) ^b Ip tumor implantation, ip QD1-9 treatment schedule.
(§2) The L1210, P388 and B16 test systems described in Table II utilize intraperitoneal (IP) tumor implantation and IP drug treatment while the Lewis lung system employs subcutaneous tumor implantation and IP treatment.
(§3) Aqueous saline solution (0.9%) was used as the drug vehicle. Normally, five doses were employed per experiment with the top dose chosen to produce toxicity. The lower doses were 50% of each preceeding dose.
(§4) Consistent with NCI antitumor test protocols, intraperitoneal (IP) administration of the drug was employed with all five tumor systems investigated. Tumor implantation was IP in the systems designated IP leukemia L1210 and P388 as well as B16 melanoma.

[4] = Room temperature water solubility; type: physicochemical
Method in brief: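 Water added incrementally by pipet, with shaking, to a weighed amount of compound at room temperature until dissolved; values are approximate.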

B16 melanocarcinoma = assay: Intraperitoneal B16 melanocarcinoma transplanted mouse tumor test; type: in vivo, murine; conditions: for ILS (increase in life span): Table II
Text: as §1, §2, §3, §4

[5] = system: P388 lymphocytic leukemia; assay: Intracerebral (IC) lymphocytic leukemia P388 test; type: in vivo, murine; conditions: for ILS (increase in life span): Table III
Text: ^b Ic tumor implantation, ip QD1-9 treatment schedule.
Central nervous system antitumor activity is given in Table III for the intracerebrally implanted L1210, P388, and ependymoblastoma tumor systems.
All three CNS tumor models (Table III) use intracerebral (IC) tumor implantation and IP treatment.

Lewis lung carcinoma = assay: Lewis lung carcinoma, subcutaneous tumor implantation; type: in vivo, murine
Text: ^c Subcutaneous tumor implantation, ip QD5-15 treatment schedule.
as §2

[6] = system: transplanted mouse tumor test systems; assay: Transplanted mouse tumor test systems (overall statement); type: in vivo, murine
Text: The criterion for minimum activity is defined here as follows: intraperitoneal and intracerebral L1210 leukemia, 25%; intraperitoneal and intracerebral P388 leukemia, 25%; B16 melanoma, 40%; Lewis lung carcinoma, 25%; and intracerebral ependymoblastoma, 40%.
The L1210, P388 and B16 test systems described in Table II utilize intraperitoneal (IP) tumor implantation and IP drug treatment while the Lewis lung system employs subcutaneous tumor implantation and IP treatment. All three CNS tumor models (Table III) use intracerebral (IC) tumor implantation and IP treatment.
(§5) The criterion for minimum activity, %ILS, is defined here as follows: Intraperitoneal and intracerebral leukemia L1210 and intraperitoneal leukemia P388, 25%; intraperitoneal B16 melanoma and intracerebral ependymoblastoma, 40%. Consistent with NCI antitumor test protocols, intraperitoneal (IP) administration of the drug was employed with all five tumor systems investigated. Tumor implantation was IP in the systems designated IP leukemia L1210 and P388 as well as B16 melanoma. Intracerebral (IC) tumor implantation was utilized in the IC L1210 and ependymoblastoma tumor systems.

[7] = system: IP ascites tumor systems (leukemia L1210 and P388); assay: IP ascites tumor systems (leukemia L1210 and P388); type: in vivo, murine
Text: as §5

ependymoblastoma = assay: Intracerebral (IC) ependymoblastoma (EM) brain tumor test; type: in vivo, murine; conditions: for ILS (increase in life span) / T - C (average weight change of test group minus control) / Cures (animals alive per six on day of termination): Table III; for ILS (increase in life span) / T - C (average weight change of test group minus control): ic ependymoblastoma; for T - C (average weight change of test group minus control): day 5
lymphoid leukemia L1210 [8] = assay: Intraperitoneal (IP) lymphoid leukemia L1210 transplanted mouse tumor test; type: in vivo, murine; conditions: for ILS (increase in life span) / T - C (average weight change of test group minus control): Table II; for T - C (average weight change of test group minus control): day 5
Text: ^(a) Day 1-9 treatment schedule (9 injections)
^(b) Day 1,5,9 treatment schedule (3 injections)
^(c) Day 1 only treatment schedule (1 injection)
^(f) Percentage increase in life span of treated animals [(treated
survival .div. control survival) × 100%] - 100%

[9] = ip QD1-5, 1.00 mg/kg/injection, expt 133 (day 99)
[10] = ip QD1-5, 1.00 mg/kg/injection, expts 136 and 144 (day 60)
[11] = ip QD1-5, 2.00 mg/kg/injection, expt 133 (day 99)
[12] = ip QD1-5, 2.00 mg/kg/injection, expts 136 and 144 (day 60)
[13] = ip QD1-5, 4.00 mg/kg/injection, expt 136 (day 60)
[14] = IP L1210, ip QD1-9, 0.88 mg/kg/injection
[15] = IP L1210, ip QD1-9, 1.30 mg/kg/injection
[16] = IP L1210, ip QD1-9, 6.25 mg/kg/injection

CCOC(=O)NC1=C(N2CC2)C(=O)C(NC(=O)OCC)=C(N2CC2)C1=O [Compound 9, 2,5-Diaziridinyl-3,6-bis (carboethoxyamino)-1,4-benzoquinone]
log P [1]: 0.05 | OD (optimum dose) (lymphoid leukemia L1210 [2]; IC L1210): 3.12 mg/kg | antitumor activity (lymphoid leukemia L1210 [2]; IC L1210): substantial | ILS (lymphoid leukemia L1210 [2]; IC L1210, OD 3.12 mg/kg): 79% and 84% | ILS (increase in life span) (lymphoid leukemia L1210 [2]; ic L1210, ip QD1-9, 1.56 mg/kg/injection): 51% and 46% | ILS (increase in life span) (lymphoid leukemia L1210 [2]; ic L1210, ip QD1-9, 3.12 mg/kg/injection): 84% and 79% | ILS (increase in life span) (lymphoid leukemia L1210 [2]; ic L1210, ip QD1-9, 6.25 mg/kg/injection): 10% and 3% | OD (optimum dose) (lymphoid leukemia L1210 [2]; Table IV, (IC) L1210, QD1-9): 3 mg/kg/injection and 5 mg/kg/injection | % ILS (lymphoid leukemia L1210 [2]; Table IV, (IC) L1210, QD1-9, at OD): 84% and 79% and 63% and 58% | ILS (%) IC L1210 (lymphoid leukemia L1210 [2]; Table XI, outstanding activity): 84% | OD (optimum dose) ([3]; IP P388): 1 to 2 mg/kg | antitumor activity ([3]; IP P388): very active | ILS (increase in life span) ([3]; Table II, IP P388, ip QD1-9, 0.78 mg/kg/injection): 111% and 99% and 112% | ILS (increase in life span) ([3]; Table II, IP P388, ip QD1-9, 1.56 mg/kg/injection): 138% and 135% and 112% | T - C (average weight change of test group minus control) ([3]; Table II, IP P388, ip QD1-9, 6.25 mg/kg/injection, day 5): -6.1 grams | OD (optimum dose) ([3]; Table IV, (IP) P388, QD1-9): 1.6 mg/kg/injection and 0.8 mg/kg/injection | % ILS ([3]; Table IV, (IP) P388, QD1-9, at OD): 138% and 135% and 112% | survivors of 6 test mice on experiment termination day ([3]; Table IV, (IP) P388, QD1-9, at OD, day 30): 1 | ILS (%) P388 ([3]; Table XI, outstanding activity): 138% | survivors (number in parentheses) P388 ([3]; Table XI, per 6 test animals, day 30): 1 | solubility [4]: appeared to be adequate | solubility ([4]; water, approximate, read-out: aqueous solubility): ~500 µg/mL (≈ 1370 µM) | OD (optimum dose) (B16 melanocarcinoma; B16): 3.12 mg/kg | antitumor activity (B16 melanocarcinoma; B16 melanoma): very active | B16 melanoma activity (ILS) (B16 melanocarcinoma; OD of 3.12 mg/kg): ≤ 70% | ILS (increase in life span) (B16 melanocarcinoma; B16, ip QD1-9, 1.56 mg/kg/injection): 38% and 44% and 58% | ILS (increase in life span) (B16 melanocarcinoma; B16, ip QD1-9, 3.12 mg/kg/injection): 58% and 43% and 70% | OD (optimum dose) (B16 melanocarcinoma; Table IV, (IP) B16, QD1-9): 3 mg/kg/injection | % ILS (B16 melanocarcinoma; Table IV, (IP) B16, QD1-9, at OD): 94% and 70% and 62% | ILS (%) B16 (B16 melanocarcinoma; Table XI, outstanding activity): 70% | antitumor activity ([5]; IC P388): substantial | ILS (increase in life span) ([5]; ic P388, ip QD1-9, 0.39 mg/kg/injection): 7% and 2% | ILS (increase in life span) ([5]; ic P388, ip QD1-9, 0.78 mg/kg/injection): 27% and 25% | ILS (increase in life span) ([5]; ic P388, ip QD1-9, 1.56 mg/kg/injection): 37% and 51% | ILS (increase in life span) ([5]; ic P388, ip QD1-9, 3.12 mg/kg/injection): 39% and 31% | OD (optimum dose) ([5]; Table IV, (IC) P388, QD1-9): 1.5 mg/kg/injection and 3 mg/kg/injection | % ILS ([5]; Table IV, (IC) P388, QD1-9, at OD): 51% and 39% | antitumor activity (Lewis lung carcinoma; Lewis lung): Marginal activity | ILS (increase in life span) (Lewis lung carcinoma; Table II, sc Lewis lung, ip QD5-15, 2.00 mg/kg/injection): 38% and 34% | toxicity [6]: reasonably toxic material | antitumor activity ([6]; IC and other transplanted mouse tumor systems): very substantial activity; also recorded: Antitumor activity was observed; also recorded: intracerebral (IC) as well as IP antitumor activity | TR (therapeutic ratio) ([6]; last three systems (P388, B16, Lewis lung)): 3-4 | antitumor activity [7]: does not give multiple cures | antitumor activity (ependymoblastoma; IC ependymoblastoma (EM)): curative; also recorded: very active | ILS (increase in life span) (ependymoblastoma; ip QD1-5, 0.25 mg/kg/injection): 30% | T - C (average weight change of test group minus control) (ependymoblastoma; ip QD1-5, 0.25 mg/kg/injection): -1.5 grams | ILS (increase in life span) (ependymoblastoma; ip QD1-5, 0.50 mg/kg/injection): 62% | T - C (average weight change of test group minus control) (ependymoblastoma; ip QD1-5, 0.50 mg/kg/injection): -1.8 grams | ILS (increase in life span) (ependymoblastoma; [9]): 348% | ILS (increase in life span) (ependymoblastoma; [10]): 126% and 171% | ILS (increase in life span) (ependymoblastoma; [11]): 349% | ILS (increase in life span) (ependymoblastoma; [12]): 277% and 171% | ILS (increase in life span) (ependymoblastoma; [13]): 276% | T - C (average weight change of test group minus control) (ependymoblastoma; ip QD1-5, 8.00 mg/kg/injection): -5.0 grams | Cures (animals alive per six on day of termination) (ependymoblastoma; [9]): 3/6 | Cures (animals alive per six on day of termination) (ependymoblastoma; [10]): 1/6 and 5/6 | Cures (animals alive per six on day of termination) (ependymoblastoma; [11]): 4/6 | Cures (animals alive per six on day of termination) (ependymoblastoma; [12]): 5/6 | Cures (animals alive per six on day of termination) (ependymoblastoma; [13]): 4/6 | OD (optimum dose) (ependymoblastoma; Table IV, (IC) ependymoblastoma, QD1-5): 2 mg/kg/injection and 1 mg/kg/injection | % ILS (ependymoblastoma; Table IV, (IC) ependymoblastoma, QD1-5, at OD): > 277% and > 202% and > 172% and > 171% | survivors of 6 test mice on experiment termination day (ependymoblastoma; Table IV, (IC) ependymoblastoma, QD1-5, at OD, day 60): 5 and 4 and 6 | survivors (number in parentheses) EM (ependymoblastoma; Table XI, per 6 test animals, day 60): 5 | TR (therapeutic ratio) (ependymoblastoma; ependymoblastoma): 4-8 | optimum dose (ependymoblastoma; ependymoblastoma): 1 to 2 mg/kg | survival (ependymoblastoma; experiment 133, 2.0 mg/kg, day 99): A majority of the test animals were alive on day 99 | activity (%ILS) (lymphoid leukemia L1210 [8]; IP L1210, Q4D schedule): 54% | optimum dose (lymphoid leukemia L1210 [8]; IP L1210, Q4D schedule): 6.25 mg/kg | optimum dose (OD) (lymphoid leukemia L1210 [8]; IP L1210, QD1-9): 2 to 3 mg/kg | therapeutic ratio (TR, highest active dose divided by lowest active dose) (lymphoid leukemia L1210 [8]; IP L1210, QD1-9): approximately 4 | increase in life span (ILS) (lymphoid leukemia L1210 [8]; L1210, Q4D and QD1-9 schedules): > 25% | antitumor activity (lymphoid leukemia L1210 [8]; L1210 system, Q4D and QD1-9 schedules): very active | ILS (increase in life span) (lymphoid leukemia L1210 [8]; [14]): 32% | T - C (average weight change of test group minus control) (lymphoid leukemia L1210 [8]; [14]): -1.4 grams | ILS (increase in life span) (lymphoid leukemia L1210 [8]; [15]): 60% | T - C (average weight change of test group minus control) (lymphoid leukemia L1210 [8]; [15]): -2.3 grams | ILS (increase in life span) (lymphoid leukemia L1210 [8]; IP L1210, ip QD1-9, 2.00 mg/kg/injection): 101% and 125% | ILS (increase in life span) (lymphoid leukemia L1210 [8]; [16]): 27% | T - C (average weight change of test group minus control) (lymphoid leukemia L1210 [8]; [16]): -4.1 grams | T - C (average weight change of test group minus control) (lymphoid leukemia L1210 [8]; IP L1210, ip QD1-9, 12.50 mg/kg/injection): -5.0 grams | OD (optimum dose) (lymphoid leukemia L1210 [8]; Table IV, (IP) L1210, QD1-9): 3 mg/kg/injection and 2 mg/kg/injection and 4 mg/kg/injection | % ILS (lymphoid leukemia L1210 [8]; Table IV, (IP) L1210, QD1-9, at OD): 169% and 113% and 101% and 100% | ILS (%) IP L1210 (lymphoid leukemia L1210 [8]; Table XI, outstanding activity): 169% | ILS (lymphoid leukemia L1210 [8]; standard IP L1210 test, QD1-9): > 100%

Reference: patent US4146622A, “Aziridinyl quinone anti-transplanted tumor agents” (priority 1977, dated 1979)
